The compounds below were run against T1, CCR2 (Homo sapiens, UniProt P41597) (assay: MCP-1 Receptor Binding Assay in THP-1 Cells (125I labeled MCP-1)). Conditions: 0.5 nM 125I labeled MCP-1, 2 hours at 30° C., read-out: Inhibition of MCP-1 Binding IC50, CCR2 Binding.
T1 construct: host or cells: THP-1 (human monocytic cell line)
T1 sequence (P41597 1-360 isoform P41597-2): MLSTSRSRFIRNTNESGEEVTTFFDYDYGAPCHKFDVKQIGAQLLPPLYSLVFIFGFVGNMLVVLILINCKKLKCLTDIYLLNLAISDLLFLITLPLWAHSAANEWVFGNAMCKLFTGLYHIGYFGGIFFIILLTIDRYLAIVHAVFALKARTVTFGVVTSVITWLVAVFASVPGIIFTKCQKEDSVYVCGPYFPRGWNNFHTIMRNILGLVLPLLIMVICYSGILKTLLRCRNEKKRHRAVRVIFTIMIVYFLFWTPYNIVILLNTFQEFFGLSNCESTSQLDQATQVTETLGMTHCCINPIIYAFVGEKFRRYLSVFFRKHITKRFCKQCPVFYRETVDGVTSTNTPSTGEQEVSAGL
Experimental: Compounds of the invention were subjected to various representative biological tests. […] MCP-1 Receptor Binding Assay in THP-1 Cells
Human monocytic cell line THP-1 cells were obtained from American Type Culture Collection (Manassas, Va., USA). […] The cell density was maintained […].
1 μM cold MCP-1 was used for nonspecific binding.

| SMILES | IC50 [nM] |
| --- | --- |
| O=C(CNC(=O)c1cccc(C(F)(F)F)c1)NC1CN(C2CCC(c3noc(N4CCCC4)n3)CC2)C1 (mixture of isomers) [Example 59, N-({1-[4-(5-Pyrrolidin-1-yl-[1,2,4]oxadiazol-3-yl)-cyclohexyl]-azetidin-3-ylcarbamoyl}-methyl)-3-trifluoromethyl-benzamide] | 400 |
| Cc1cc(=O)[nH]c(C2CCC(N3CC(NC(=O)CNC(=O)c4cccc(C(F)(F)F)c4)C3)CC2)n1 (mixture of isomers) [Example 60, N-({1-[4-(4-Methyl-6-oxo-1,6-dihydro-pyrimidin-2-yl)-cyclohexyl]-azetidin-3-ylcarbamoyl}-methyl)-3-trifluoromethyl-benzamide] | 3900 |
| O=C(CNC(=O)c1cccc(C(F)(F)F)c1)NC1CN(C2CCC(c3nc4c(c(=O)[nH]3)CCCC4)CC2)C1 (mixture of isomers) [Example 61, N-({1-[4-(4-Oxo-3,4,5,6,7,8-hexahydro-quinazolin-2-yl)-cyclohexyl]-azetidin-3-ylcarbamoyl}-methyl)-3-trifluoromethyl-benzamide] | 4000 |
| O=C(CNC(=O)c1cccc(C(F)(F)F)c1)NC1CN(C2CCC(c3nsc(Cl)n3)CC2)C1 (mixture of isomers) [Example 62, N-({1-[4-(5-Chloro-[1,2,4]thiadiazol-3-yl)-cyclohexyl]-azetidin-3-ylcarbamoyl}-methyl)-3-trifluoromethyl-benzamide] | 390 |
| O=C(CNC(=O)c1cccc(C(F)(F)F)c1)NC1CN(C2CCC(c3nc4n(n3)CCCC4)CC2)C1 (mixture of isomers) [Example 63, N-({1-[4-(5,6,7,8-Tetrahydro-[1,2,4]-triazolo[1,5-a]pyridin-2-yl)-cyclohexyl]-azetidin-3-ylcarbamoyl}-methyl)-3-trifluoromethyl-benzamide] | 1500 |
| COc1ccc(C2CCC(N3CC(NC(=O)CNC(=O)c4cccc(C(F)(F)F)c4)C3)CC2)cn1 (single isomer, unassigned) [Example 1a, N-({1-[4-(6-Methoxy-pyridin-3-yl)-cyclohexyl]-azetidin-3-ylcarbamoyl}-methyl)-3-trifluoromethyl-benzamide] | 7 |
| Nc1cccc(C2CCC(N3CC(NC(=O)CNC(=O)c4cccc(C(F)(F)F)c4)C3)CC2)n1 (single isomer, unassigned) [Example 22a, N-({1-[4-(6-Amino-pyridin-2-yl)-cyclohexyl]-azetidin-3-ylcarbamoyl}-methyl)-3-trifluoromethyl-benzamide] | 25 |
| CNc1cccc(C2CCC(N3CC(NC(=O)CNC(=O)c4cccc(C(F)(F)F)c4)C3)CC2)n1 (single isomer, unassigned) [Example 23a, N-({1-[4-(6-Methylamino-pyridin-2-yl)-cyclohexyl]-azetidin-3-ylcarbamoyl}-methyl)-3-trifluoromethyl-benzamide] | 72 |
| Nc1ccncc1C1CCC(N2CC(NC(=O)CNC(=O)c3cccc(C(F)(F)F)c3)C2)CC1 (single isomer, unassigned) [Example 27a, N-({1-[4-(4-Amino-pyridin-3-yl)-cyclohexyl]-azetidin-3-ylcarbamoyl}-methyl)-3-trifluoromethyl-benzamide] | 2700 |
| Nc1ccc(C2CCC(N3CC(NC(=O)CNC(=O)c4cccc(C(F)(F)F)c4)C3)CC2)cn1 (single isomer, unassigned) [Example 30a, N-({1-[4-(6-Amino-pyridin-3-yl)-cyclohexyl]-azetidin-3-ylcarbamoyl}-methyl)-3-trifluoromethyl-benzamide] | 189 |
| Nc1ncccc1C1CCC(N2CC(NC(=O)CNC(=O)c3cccc(C(F)(F)F)c3)C2)CC1 (single isomer, unassigned) [Example 31a, N-({1-[4-(2-Amino-pyridin-3-yl)-cyclohexyl]-azetidin-3-ylcarbamoyl}-methyl)-3-trifluoromethyl-benzamide] | 150 |

From patent US8269015B2, “4-azetidinyl-1-heteroaryl-cyclohexane antagonists of CCR2” (Janssen Pharmaceutica N.V., priority 2009, dated 2012)
